Patent publication US9603367B2, “Pesticidal mixtures including spiroheterocyclic pyrrolidine diones” (priority 2012, dated 2017)

Experiments:
[1] = test system: Myzus persicae (Green Peach Aphid); assay: Myzus persicae (Green Peach Aphid) feeding/residual contact activity, preventive; sprayed sunflower leaf discs; format: in vivo; settings: Pirimicarb alone
Excerpt: (§1) A synergistic effect exists whenever the action of an active ingredient combination is greater than the sum of the actions of the individual components.
(§2) The action to be expected E for a given active ingredient combination obeys the so-called COLBY formula and can be calculated as follows (COLBY, S. R. “Calculating synergistic and antagonistic responses of herbicide combination”. Weeds, Vol. 15, pages 20-22; 1967): […]
(§3) ppm=milligrams of active ingredient (=a.i.) per liter of spray mixture
(§4) X=% action by active ingredient A) using p ppm of active ingredient
(§5) Y=% action by active ingredient B) using q ppm of active ingredient.
(§6) According to COLBY, the expected (additive) action of active ingredients A)+B) using p+q ppm of active ingredient is If the action actually observed (O) is greater than the expected action (E), then the action of the combination is super-additive, i.e. there is a synergistic effect. In mathematical terms the synergism factor SF corresponds to O/E. In the agricultural practice an SF of ≧1.2 indicates significant improvement over the purely complementary addition of activities (expected activity), while an SF of ≦0.9 in the practical application routine signals a loss of activity compared to the expected activity.
Myzus persicae (Green Peach Aphid): feeding/residual contact activity, preventive
Sunflower leaf discs were placed on agar in a 24-well microtiter plate and sprayed with the DMSO test solutions of Mixtures (as provided by Table 45). After drying, the leaf discs were infested with an aphid population of mixed ages. After an incubation period of 6 DAT (days after treatment), samples were checked for mortality.

[2] = test system: Tetranychus urticae (Two-Spotted Spider Mite); assay: Tetranychus urticae (Two-Spotted Spider Mite) feeding/contact activity, preventive; sprayed bean leaf discs; format: in vivo; settings: Pirimicarb alone
Excerpt: as §1, §2, §3, §4, §5, §6
Tetranychus urticae (Two-Spotted Spider Mite): feeding/contact activity, preventive
Bean leaf discs on agar in 24-well microtiter plates were sprayed with the DMSO test solutions of certain Mixtures (as provided by Table 45). After drying, the leaf discs were infested with mite populations of mixed ages. 8 days later, discs were checked for mortality against mobile stages.

## Cc1nc(N(C)C)nc(OC(=O)N(C)C)c1C [Pirimicarb]
[1]; 12.5 PPM AI, 6 DAT
  AVERAGE DEAD IN % AFTER 6 DAYS, Pirimicarb: 0%
[1]; 25 PPM AI, 6 DAT
  AVERAGE DEAD IN % AFTER 6 DAYS, Pirimicarb: 17.5%
[1]; 25 PPM AI, 6 DAT (Table 47)
  AVERAGE DEAD IN % AFTER 6 DAYS, Pirimicarb: 17.5%
[1]; 50 PPM AI, 6 DAT
  AVERAGE DEAD IN % AFTER 6 DAYS, Pirimicarb: 65%
[1]; 100 PPM AI, 6 DAT
  AVERAGE DEAD IN % AFTER 6 DAYS, Pirimicarb: 87.5%
[1]; 200 PPM AI, 6 DAT
  AVERAGE DEAD IN % AFTER 6 DAYS, Pirimicarb: 100%
[2]; 25 PPM AI, mobile stages
  AVERAGE DEAD IN % AFTER 8 DAYS, Pirimicarb: 0%
[2]; 50 PPM AI, mobile stages
  AVERAGE DEAD IN % AFTER 8 DAYS, Pirimicarb: 0%
[2]; 100 PPM AI, mobile stages
  AVERAGE DEAD IN % AFTER 8 DAYS, Pirimicarb: 0%
[2]; 200 PPM AI, mobile stages (Table 48)
  AVERAGE DEAD IN % AFTER 8 DAYS, Pirimicarb: 0%
[2]; 200 PPM AI, mobile stages (Table 49)
  AVERAGE DEAD IN % AFTER 8 DAYS, Pirimicarb: 0%
[2]; 400 PPM AI, mobile stages
  AVERAGE DEAD IN % AFTER 8 DAYS, Pirimicarb: 0%
